Data from ChEMBL document CHEMBL1153415, “Evaluation of antioxidant properties of monoaromatic derivatives of pulvinic acids” (J Med Chem, 2009).
Activity calls are given as the source filed them. The calls are words filed in the database; no cut-off is given here.

Tests used:
[1] = Antioxidant activity against Fe/EDTA/H2O2-induced thymidine degradation by thymidine protection assay; assay type: functional
[2] = Antioxidant activity against […]/EDTA/H2O2-induced pEGFPLuc plasmid DNA degradation assessed as remaining supercoiled DNA form at 125 uM by gel-electrophoresis; assay type: functional
[3] = Antioxidant activity against UV/H2O2-induced thymidine degradation by thymidine protection assay; assay type: functional
[4] = Antioxidant activity against superoxide radical assessed as trolox equivalents by luminol-enhanced chemiluminescence; assay type: functional
[5] = Antioxidant activity against Fe/EDTA/H2O2-induced thymidine degradation at 100 uM by thymidine protection assay; assay type: functional
[6] = Antioxidant activity against UV/H2O2-induced thymidine degradation at 100 uM by thymidine protection assay; assay type: functional
CHO = experiment: Cytotoxicity against CHO cells at 10 to 100 uM by MTT assay relative to control; assay type: cell-based, Cricetulus griseus; settings: chinese hamster

Row | EC50 [1] [µM] | EC50 [3] [µM] | Compound | Activity [2] | Activity [4] [µg] | Activity [5] | Activity [6] | Activity (CHO)
1 | 196 | 130 | COC(=O)/C(C)=C1/OC(=O)C(c2ccc(OC)cc2)=C1O | 40% | 141 | – | – | –
2 | – | – | COc1ccc(C2=C(O)/C(=C(/C)C(=O)N3CCOCC3)OC2=O)cc1 | Active | 79 | 37% | 30% | Non-toxic
3 | 971 | 175 | COC(=O)/C(=C1/OC(=O)C(C)=C1O)c1ccc(OC)cc1 | – | – | – | – | –
4 | – | – | COC(=O)/C(C)=C1/OC(=O)C(/C=C/c2ccccc2)=C1O | Active | – | Active | Active | –
5 | – | – | COc1ccc(C2=C(O)/C(=C(/C)C(=O)NCCCN)OC2=O)cc1 | 40% | 81 | 37% | 30% | –
6 | – | – | COC(=O)/C(C)=C1/OC(=O)C(c2ccc(C(C)C)cc2)=C1O | Active | – | Active | Active | –
7 | – | – | COc1ccc(/C(C(=O)OC(C)C)=C2\OC(=O)C(C)=C2O)cc1 | – | 77 | – | – | Non-toxic
8 | – | – | COC(=O)/C(=C1/OC(=O)C(c2ccccc2)=C1O)c1ccccc1 | – | – | Active | Active | –
9 | – | – | COC(=O)/C(=C1/OC(=O)C(C)=C1O)c1ccc(Br)cc1 | – | 87 | – | – | –
10 | – | – | COC(=O)/C(C)=C1/OC(=O)C(c2ccccc2)=C1O | Active | – | – | – | Non-toxic
11 | – | – | COc1ccc(C2=C(O)/C(=C(/C)C(=O)OC(C)C)OC2=O)cc1 | Active | 105 | 37% | 27% | –
12 | 226 | 91 | CCCCNC(=O)/C(C)=C1/OC(=O)C(c2ccc(OC)cc2)=C1O | 40% | 86 | 37% | 30% | Non-toxic
13 | 850 | 220 | COC(=O)/C(=C1/OC(=O)C(C)=C1O)c1ccccc1 | – | – | – | – | Non-toxic
14 | – | – | COc1ccc(C2=C(O)/C(=C(/C)C(=O)N(C)OC)OC2=O)cc1 | Active | – | 37% | 30% | –
15 | – | – | COC(=O)/C(C)=C1/OC(=O)C(c2ccc(Br)cc2)=C1O | Active | 113 | Active | Active | Non-toxic
16 | – | – | COC(=O)/C(C)=C1/OC(=O)C(c2ccc(F)cc2)=C1O | Active | – | Active | Active | –
17 | 608 | 117 | COc1ccc(C2=C(O)/C(=C(/C)C(C)(C)O)OC2=O)cc1 | 40% | – | – | – | Non-toxic
18 | 109 | 90 | COC(=O)/C(=C1/OC(O)=C(c2ccc(OC)cc2)C1=O)c1ccc(OC)cc1 | Active | 54 | – | – | Non-toxic
